Experimental data as given in patent US20100331185A1, “Herbicidal Compositions of Lithium Glyphosate and Adjuvants” (COGNIS IP […], priority 2007, published 2010).
Read-outs that look alike come from different tables or passages of the source.

Legend:
[1] = Procedure: 35.2 g of glyphosate tech (96%, 0.208 mol) was mixed with 20 g water in a flask. 8.4 g of LiOH monohydrate was added to this mixture with good mixing.
[2] = acid form, in water at 25° C.; cited from earlier work

| Compound | product pH (1%) [1] | Li glyphosate Solubility ([1]; solvent: Agnique KE 3658) | Li glyphosate Solubility ([1]; solvent: Agnique ME 610) | Li glyphosate Solubility ([1]; solvent: Exxsol D-110) | Li glyphosate Solubility ([1]; solvent: N-Methyl pyrrolidone) | Li glyphosate Solubility ([1]; solvent: Water) | solubility in water [2] |
| --- | --- | --- | --- | --- | --- | --- | --- |
| O=C(O)CNCP(=O)([O-])O.[Li+] [Li glyphosate, lithium glyphosate] | 4.98 | <100 mg/mL | <50 mg/mL | <50 mg/mL | <150 mg/mL | <200 mg/mL | – |
| O=C(O)CNCP(=O)(O)O [glyphosate] | – | – | – | – | – | – | 0.16 % by weight |
